Data as given in article PMC5296225 (European journal of medicinal chemistry, 2016).

Assays:
SAP (saporin L3) [1] = molecular target: T1, SAP (saporin L3) (Saponaria officinalis, UniProt Q2QEH4); assay: Competitive inhibition of saporin L3 with stem-loop RNA A10; format: biochemical
Saporin L3 (SAP) = format: biochemical, Saponaria officinalus
SAP and SAP-A14C = assay: Inhibition of SAP hydrolysis of yeast tRNA and rabbit rRNA; format: biochemical, Saponaria officinalus; settings: rabbit 80S ribosome 100 nM or yeast tRNA 1.0 mg/mL; 10 min preincubation
SAP (saporin L3) [2] = molecular target: T1, SAP (saporin L3); assay: Ki* quoted in Table 1 from ref 19; format: biochemical; settings: read-out: Inhibition constant Ki* (nM), value taken from Schramm et al. [19]; cited from earlier work

T1 sequence (Q2QEH4 22-280 limits assumed): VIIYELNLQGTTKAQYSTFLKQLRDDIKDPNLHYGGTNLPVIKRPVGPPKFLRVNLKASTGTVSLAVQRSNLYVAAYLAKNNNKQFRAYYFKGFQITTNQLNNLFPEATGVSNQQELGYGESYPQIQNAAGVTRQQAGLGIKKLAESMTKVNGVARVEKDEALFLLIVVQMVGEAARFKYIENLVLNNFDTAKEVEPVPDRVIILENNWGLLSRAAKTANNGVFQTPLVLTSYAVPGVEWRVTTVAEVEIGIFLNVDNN

CO[C@@H]1[C@H](O)[C@@H](COP(=O)(O)O[C@H]2CN(Cc3c[nH]c4c(N)ncnc34)C[C@@H]2COP(=O)(O)O[C@H]2[C@@H](OC)[C@H](n3cnc4c(=O)[nH]c(N)nc43)O[C@@H]2CO)O[C@H]1n1cnc2c(=O)[nH]c(N)nc21 [compound 32, GpDIApG (2'-O-methyl guanosines)]
Ki (SAP (saporin L3) [1]): 0.033 ± 0.0017 µM

GpGpDIApPD [Compound 41]
inhibition of SAP (in words) (Saporin L3 (SAP)): weak inhibitors

PDpApGpPD [reference compound]
Ki (Saporin L3 (SAP); RNA A10 substrate, slow-onset dissociation constant): 16.1 µM

PDpDIApGpPD [Compound 2]
inhibition of hydrolysis of yeast tRNA and rabbit rRNA by SAP and SAP-A14C (SAP and SAP-A14C): inhibits

PDpGpDIApPD [Compound 39]
inhibition of SAP (in words) (Saporin L3 (SAP)): weak inhibitors

PDpHomoSerpGpPD [Compound 52]
inhibition of SAP (in words) (Saporin L3 (SAP)): good inhibitors

catalytically inactive substrate analogue PDpApGpPD (adenosine in place of DIA; PD = propanediol)
Ki (SAP (saporin L3) [1]; read-out: Inhibition constant Ki*): 16 µM

serinol analogue of PDpDIApGpPD (Ser = serinol; PD = propanediol) [PDpSerpGpPD]
Ki (SAP (saporin L3) [2]): 43.2 ± 1.1 nM
